{"source": "patent US5639950A", "about": "“Nucleotide sequence encoding for bifunctional enzyme for proline production” (The Ohio State University Research Foundation, priority 1994, dated 1997)", "key": {"[1]": {"biological_target": "mutant E. coli gamma-GK encoded by the proB74 allele (Escherichia coli, UniProt P0A7B5, D107N)", "sequence (P0A7B5 whole entry D107N)": "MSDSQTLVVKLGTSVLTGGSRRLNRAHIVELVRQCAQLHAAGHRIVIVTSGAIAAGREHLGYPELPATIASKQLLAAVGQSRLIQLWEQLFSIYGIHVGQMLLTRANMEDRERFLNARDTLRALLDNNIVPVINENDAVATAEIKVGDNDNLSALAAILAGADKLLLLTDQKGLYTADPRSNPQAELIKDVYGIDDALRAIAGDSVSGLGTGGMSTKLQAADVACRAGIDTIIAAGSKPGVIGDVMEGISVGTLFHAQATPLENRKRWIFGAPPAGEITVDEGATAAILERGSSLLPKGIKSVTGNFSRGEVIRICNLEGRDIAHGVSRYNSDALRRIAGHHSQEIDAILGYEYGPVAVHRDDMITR", "settings": "proB74 mutant form of the bacterial enzyme", "protocol": "(§1) FIG. 3 is a graph illustrating feedback inhibition of delta^1 -pyrroline-5-carboxylate synthetase by proline. Ammonium sulfate-fractionated extracts from E. coli CSH26 (.circle-solid.), E. coli CSH26 harboring PVAB2 (.smallcircle.), the proB74 allele (.orgate.), and the wild-type proB allele (.quadrature.) were assayed for gamma-GK activity by the method of Hayzer and Leisinger, J. Gen. Microbiol., 118, 1980, pp. 287-293.\n(§2) P5CS has GSA dehydrogenase and gamma-GK activities, and the gamma-GK activity is feedback inhibited by proline. To confirm that the presently claimed sequence, PVAB2 of FIGS. 1A, 1B, 1C and 1D, encoded P5CS activity, ammonium sulfate-fractionated extracts of E. coli CSH26 and CSH26 harboring PVAB2 were assayed for GSA dehydrogenase-dependent gamma-GK enzyme activity. […] Because proline production is regulated by end-product inhibition of gamma-GK in bacteria, the plant enzyme P5CS was similarly subjected to feed-back control testing. […] The mutation responsible for the resistance to end-product inhibition of the gamma-GK in the proB 74 allele involves a substitution of an A for a G nucleotide, resulting in a change from aspartic acid to asparagine residue at position 107.\nE. coli CSH26 cells and CSH26 harboring different plasmids were grown aerobically at 37° C. for about 16 hours. […]"}, "[2]": {"biological_target": "T1, wild-type E. coli gamma-GK (Escherichia coli, UniProt P0A7B5)", "T1 construct": "made in house; host or cells: E. coli CSH26 harboring the wild-type proB allele (plasmid pDU1 from A. Dandekar); ammonium sulfate fraction 40-60%", "T1 sequence (P0A7B5 whole entry)": "as the sequence (P0A7B5 whole entry D107N) above, with N107D counted along it", "assay": "biochemical", "protocol": "as §1, §2\n(§3) E. coli CSH26 cells and CSH26 harboring different plasmids were grown aerobically at 37° C. for about 16 hours. The cells were harvested by centrifugation at 4,000× g for 10 minutes, and the cell paste resulting was suspended in 4 ml of buffer A (50 mM Tris-Hcl, 1 mM dithiothreitol) at […] Following sonication, (Benson Sonifier, Type 450) at 50 watts, the slurry was centrifuged at 4,000× g for 10 minutes and the supernatant fractionated by ammonium sulfate precipitation. For E. coli CSH26 containing PVAB2, the fraction precipitating between 0 and 30% saturation of ammonium sulfate was used for enzyme assay."}, "[3]": {"biological_target": "Vigna aconitifolia delta1-pyrroline-5-carboxylate synthetase (P5CS) (Vigna aconitifolia, UniProt P32296)", "sequence (P32296 whole entry)": "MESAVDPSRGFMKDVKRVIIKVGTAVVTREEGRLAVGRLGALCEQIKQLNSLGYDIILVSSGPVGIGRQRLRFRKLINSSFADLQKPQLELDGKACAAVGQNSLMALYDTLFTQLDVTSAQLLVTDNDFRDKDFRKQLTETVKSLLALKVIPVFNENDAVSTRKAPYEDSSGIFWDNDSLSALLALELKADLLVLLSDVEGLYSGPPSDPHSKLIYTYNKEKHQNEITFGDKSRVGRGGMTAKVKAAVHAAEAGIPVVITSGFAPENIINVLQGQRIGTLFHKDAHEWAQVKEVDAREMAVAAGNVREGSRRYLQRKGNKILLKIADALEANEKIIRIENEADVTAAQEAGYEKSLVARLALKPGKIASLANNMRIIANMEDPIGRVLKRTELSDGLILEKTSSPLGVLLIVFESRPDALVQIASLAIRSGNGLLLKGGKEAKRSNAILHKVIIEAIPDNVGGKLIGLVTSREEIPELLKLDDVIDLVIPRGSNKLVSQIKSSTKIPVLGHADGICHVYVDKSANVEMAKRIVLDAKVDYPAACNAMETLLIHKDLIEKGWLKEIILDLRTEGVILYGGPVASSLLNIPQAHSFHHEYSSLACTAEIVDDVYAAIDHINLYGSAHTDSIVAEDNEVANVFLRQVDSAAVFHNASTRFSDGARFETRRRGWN", "assay": "biochemical", "protocol": "as §1, §2, §3"}, "[4]": {"test_system": "wild-type E. coli gamma-GK", "assay": "biochemical", "settings": "more sensitive than Vigna enzyme", "protocol": "as §1, §2, §3"}}}
{"smiles": "O=C(O)[C@@H]1CCCN1", "note": "[proline]", "values": [{"measurement": "sensitivity to end product (proline) inhibition, fold less sensitive", "setting": "[1]", "value": "approximately 200 fold"}, {"measurement": "IC50", "setting": "[2]", "value": 0.2, "unit": "mM"}, {"measurement": "IC50", "setting": "[3]", "value": 6, "unit": "mM"}, {"measurement": "sensitivity to proline of wild-type E. coli gamma-GK relative to the Vigna enzyme", "setting": "[4]", "value": 30, "unit": "times"}]}
